Experimental data from the METLIN SMRT retention time set (Domingo-Almenara et al. 2019).

Test: gradient 5% acetonitrile 3 min, to 50% in 2 min, to 85% in 15 min, held 3 min, 100 µL/min
Settings: column: Zorbax Extend-C18 2.1 x 50 mm; eluents: water / acetonitrile, 0.1% formic acid
Procedure, shortened: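 The mobile phases were water and acetonitrile, each with 0.1% formic acid, pumped at 100 μL/min through a Zorbax Extend-C18 column (2.1 × 50 mm, 1.8 μm). Pure standards were injected as mixtures of ~100 molecules and detected by a quadrupole time-of-flight mass spectrometer in positive and negative ionization mode. Retention time came from computationally picked adduct peaks, each inspected by hand.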

## O=C(CCc1c(-c2ccc(F)cc2)nc2ccccn12)Nc1cccc(Br)c1
  RP-LC retention time: 730 s

## COc1cc(NC(=O)C2CC(=O)N(c3ccc4c(c3)CCN4C(C)=O)C2)cc(OC)c1 (stereo unspecified)
  RP-LC retention time: 694 s

## CCN(CC)S(=O)(=O)c1cccc(-c2nnc(-c3ccccc3OC)o2)c1
  RP-LC retention time: 950 s

## O=C(CCn1nnc2cc(-c3noc(COc4ccc(F)cc4)n3)ccc21)N1CCOCC1
  RP-LC retention time: 823 s

## Cc1ccc(-c2cc3n(n2)CCCN(C(=O)c2ccncc2)C3)cc1
  RP-LC retention time: 689 s

## Cc1sc2ccn(C)c(=O)c2c1C(=O)NCc1cccc(Cl)c1
  RP-LC retention time: 817 s

## Cc1cccc(NC(=O)C2CCCN2S(=O)(=O)c2cc3c(cc2C)NC(=O)CO3)c1 (stereo unspecified)
  RP-LC retention time: 763 s

## CN(CC1CCOC1)C(=O)Nc1ccccc1F (stereo unspecified)
  RP-LC retention time: 656 s

## O=C(NCC(c1ccc2c(c1)OCO2)N1CCN(c2ccccc2F)CC1)c1cnccn1 (stereo unspecified)
  RP-LC retention time: 593 s

## CNC(=O)[C@@H]1C[C@H](Oc2ccccc2)CN1C(=O)C1CCC1
  RP-LC retention time: 680 s

## COc1cccc(-c2ccc(=O)n(Cc3nc(-c4ccc(OC(C)C)cc4)no3)n2)c1
  RP-LC retention time: 1140 s

## O=C(Nc1ccccc1Cl)N1CCCC1c1nc(-c2ccc(F)cc2F)no1 (stereo unspecified)
  RP-LC retention time: 1040 s

## Cc1ccc(NC(=O)c2cn3c(n2)CCCC3)c(F)c1
  RP-LC retention time: 720 s

## CCn1nc(C)c(-c2cc(C(=O)N3CCCCCCNC(=O)[C@@H]4CCCC[C@@H]43)no2)c1C
  RP-LC retention time: 834 s

## COc1ccccc1N1CCN(c2cc(SCC(=O)Nc3ccc(Cl)cc3F)ncn2)CC1
  RP-LC retention time: 1260 s

## CN(C)CCNC(=O)C1CCN(c2nc3ccc(-c4ccccc4F)nc3s2)CC1
  RP-LC retention time: 658 s

## COC(=O)c1ccsc1NC(=O)c1ccc2c(c1)OCCO2
  RP-LC retention time: 979 s

## Cc1nncn1C1CN(C(=O)c2ccc(N(C)C)cc2)C1
  RP-LC retention time: 602 s

## COc1ccccc1C(=O)NCCn1cc(SCC(N)=O)c2ccccc21
  RP-LC retention time: 680 s

## COCCCNC(=O)C1c2ccccc2C(=O)N1Cc1ccccc1C (stereo unspecified)
  RP-LC retention time: 753 s

## CN1CCN(c2cc(-c3nc(-c4ccccc4)no3)c3ccccc3n2)CC1
  RP-LC retention time: 796 s

## CC(=O)c1cccc(NC(=O)Cn2cc3c(n2)CCCC3)c1
  RP-LC retention time: 760 s

## Cc1ccccc1CN1N=C(C(=O)N2CCCC2)S(=O)(=O)c2ccccc21
  RP-LC retention time: 869 s

## Cc1cc(=O)n(CC(=O)Nc2ccc3c(c2)OCO3)c(-c2ccccc2)n1
  RP-LC retention time: 941 s

## Cc1ccc(Cl)cc1NC(=O)N1CCCC(C)(C(=O)NCc2ccccc2)C1 (stereo unspecified)
  RP-LC retention time: 1040 s

## CC1(C)O[C@@H]2C[C@H]3[C@@H]4CCC5=CC(=O)C=C[C@]5(C)[C@H]4[C@@H](O)C[C@]3(C)[C@]2(C(=O)CO)O1
  RP-LC retention time: 814 s

## CSc1cccc(NC(=O)C2CCCN(c3nnc(C)c4c(C)n(-c5ccccc5)nc34)C2)c1 (stereo unspecified)
  RP-LC retention time: 798 s

## CC(NC(=O)c1ccc2nc(-c3ccccc3)cn2c1)c1ccccn1 (stereo unspecified)
  RP-LC retention time: 572 s

## COc1cc(=O)n(-c2ccccc2C)nc1C(=O)Nc1nc2ccc(C)cc2s1
  RP-LC retention time: 861 s

## Cn1c(=O)c(N2CCN(C(=O)c3ccc(Br)cc3)CC2)nc2cccnc21
  RP-LC retention time: 911 s

## COCCN1CC2(CCN(S(=O)(=O)c3ccc(Cl)cc3C)CC2)C1c1ccccc1 (stereo unspecified)
  RP-LC retention time: 779 s

## CCC(NC(=O)Cc1cn(C)c2ncccc12)c1cccs1 (stereo unspecified)
  RP-LC retention time: 709 s

## Cc1noc(C)c1CNC(=O)c1ccc(C#N)cc1
  RP-LC retention time: 675 s

## COCC(=O)NCc1nnnn1C1CCCCC1
  RP-LC retention time: 608 s

## CCC[C@@H]1C[C@@H](C(=O)N[C@@H]([C@H]2O[C@H](SC)[C@@H](O)[C@@H](O)[C@H]2O)[C@@H](C)O)N(C)C1
  RP-LC retention time: 584 s

## CCCCOC(=O)c1ccc(NC(=O)c2ccc(N3CCCCS3(=O)=O)cc2)cc1
  RP-LC retention time: 976 s
